In patent publication US20220388962A1 (Biohaven Therapeutics Ltd., priority 2019, published 2022):

Target: T1, TDP-43 (Homo sapiens, UniProt Q13148)
Test: not given
Conditions: using bt-(TG)6, not bt-TAR32; cited from earlier work

T1 sequence (Q13148 whole entry): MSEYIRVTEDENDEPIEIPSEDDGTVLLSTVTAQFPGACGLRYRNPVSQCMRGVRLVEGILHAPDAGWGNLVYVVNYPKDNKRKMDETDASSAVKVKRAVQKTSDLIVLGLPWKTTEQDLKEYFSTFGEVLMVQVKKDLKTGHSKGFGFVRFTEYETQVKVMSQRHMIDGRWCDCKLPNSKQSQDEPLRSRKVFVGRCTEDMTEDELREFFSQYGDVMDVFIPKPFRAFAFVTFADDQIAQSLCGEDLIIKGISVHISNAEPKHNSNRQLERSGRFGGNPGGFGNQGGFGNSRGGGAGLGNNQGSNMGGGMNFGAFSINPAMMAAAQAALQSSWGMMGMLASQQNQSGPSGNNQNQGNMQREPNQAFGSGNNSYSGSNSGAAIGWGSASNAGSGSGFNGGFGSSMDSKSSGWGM

SMILES | activity in TDP-43 alpha-screen
COc1ccc(-c2cc(NCCCN(C)C)c3ccccc3n2)cc1 [(XXVIII)] | active

Target: T1, TDP-43
Test: TDP-43-DNA alpha-screen assay (bt-TAR-32 displacement)
Format: binding
Conditions: bt-TAR-32 0.125 nM, 15 ng/ml TDP-43
Procedure, shortened: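 GST-TDP-43 (15 ng/ml final) on anti-GST acceptor beads pre-incubated 30 min at 23 °C with compound (50 to 0.02 μM, half-log) in 25 mM Tris pH 7.4, 0.1% BSA, 0.1% Triton X-100. Biotinylated TAR-32 DNA (0.125 nM final) on streptavidin donor beads added, 90 min at 23 °C dark; AlphaScreen signal fitted for IC50.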

SMILES | IC50
CN(C)CCCNc1cc(-c2ccc(N3CCNCC3)cc2)nc2ccccc12 [Example 99, N^1,N^1-dimethyl-N3-(2-(4-(piperazin-1-yl)phenyl)quinolin-4-yl)propane-1,3-diamine] | 150 nM
NCCCNc1cc(-c2cnn(CCN3CCCC3)c2)nc2ccccc12 [Example 100] | 160 nM
COc1ccc(-c2cc(N[C@H]3CC[C@H](N)CC3)c3cc(OC)c(OC)cc3n2)cc1 [Example 101] | 170 nM
COc1ccc(-c2cc(NC3CCN(C4CCC(N)CC4)CC3)c3ccccc3n2)cc1 (stereo not shown) [Example 102] | 180 nM
CN(C)CCCNc1cc(-c2ccc(N3CCNCC3)cc2)nc2ccc(F)cc12 [Example 103, N-(3-(dimethylamino)propyl)-6-fluoro-2-(4-(piperazin-1-yl)phenyl)quinolin-4-amine] | 220 nM
COc1ccc(-c2cc(NC3CCN(CCCN)CC3)c3ccccc3n2)cc1 [Example 104] | 220 nM
COc1ccc(-c2cc(N[C@H]3CC[C@@H](N)CC3)c3cc(OC)c(OC)cc3n2)cc1 [Example 105] | 230 nM
CC(C)C(N)C(=O)NC(C(=O)NC(C(=O)N1CCN(c2ccc(-c3cc(NCCCN(C)C)c4ccccc4n3)cc2)CC1)C(C)C)C(C)C (stereo not shown) [Example 106] | 240 nM
CN(C)CCCNc1cc(-c2cnn(C3CCN(C)CC3)c2)nc2ccccc12 [Example 107] | 260 nM
COc1ccc(-c2cc(NCCCN(C)C)c3cc(OC)c(OC)cc3n2)cc1 [Example 108] | 270 nM
COc1ccc(-c2cc(NCCCN)c3cc(OC)c(OC)cc3n2)cc1 [Example 109] | 290 nM
CN(C)CCCNc1cc(-c2ccc(N3CCN(C)CC3)cc2)nc2ccccc12 [Example 110] | 310 nM
CC(C)C(N)C(=O)NC(C(=O)N1CCN(c2ccc(-c3cc(NCCCN(C)C)c4ccccc4n3)cc2)CC1)C(C)C (stereo not shown) [Example 111] | 420 nM
COc1ccc(-c2cc(N[C@H]3C[C@@H](N)C3)c3ccccc3n2)cc1 [Example 112] | 490 nM
NCCCNc1cc(-c2ccc3ncccc3c2)nc2ccccc12 [Example 113] | 570 nM
CN(C)CCCNc1cc(-c2ccc(N3CCN(C)C(=O)C3)cc2)nc2ccccc12 [Example 114] | 600 nM
NCCCNc1cc(-c2ccc3c(c2)CCO3)nc2ccccc12 [Example 116] | 640 nM
[2H]C([2H])([2H])Oc1ccc(-c2cc(NCCCN)c3ccccc3n2)cc1 [Example 117] | 760 nM
CN(C)CCCNc1cc(-c2ccc3ncccc3c2)nc2ccccc12 [Example 118] | 800 nM
NCCCNc1cc(C2=CCNCC2)nc2ccccc12 [Example 120] | 870 nM
COc1ccc(-c2cc(NC3CCNCC3)c3ccccc3n2)cc1 [Example 122] | 1170 nM
[2H]C([2H])([2H])Oc1ccc(-c2cc(NCCCN(C)C)c3ccccc3n2)cc1 [Example 123] | 1210 nM

SMILES | IC50
CN(C)CCCNc1cc(-c2ccc3occc3c2)nc2ccccc12 [Example 124] | 1280 nM
Cn1cc(-c2cc(NCCCN)c3ccccc3n2)cn1 [Example 125] | 1300 nM
CN(C)CCCNc1cc(-c2cnn(C3CC3)c2)nc2ccccc12 [Example 127] | 1510 nM
NCCCNc1cc(C2=CCCCC2)nc2ccccc12 [Example 128] | 1570 nM
COc1ccc(-c2cc(NCCCN(C)C(=O)[C@H](C)N)c3ccccc3n2)cc1 [Example 129] | 1660 nM
[2H]C([2H])([2H])N(CCCNc1cc(-c2ccc(OC)cc2)nc2ccccc12)C([2H])([2H])[2H] [Example 130] | 1780 nM
NCCCNc1cc(-c2ccco2)nc2ccccc12 [Example 131] | 2550 nM
COc1ccc(-c2cc(NCCCN(C)C)c3ccccc3n2)cc1 [Example 132] | 2720 nM
COc1ccc(-c2cc(NCCCN(C)C)c3c(F)cccc3n2)cc1 [Example 133] | 2900 nM
NCCCNc1cc(-c2cnn(CCN3CCOCC3)c2)nc2ccccc12 [Example 134] | 2940 nM
COc1ccc(-c2cc(NCCCO)c3ccccc3n2)cc1 [Example 135] | 31700 nM
COc1ncc(-c2cc(NCCCN(C)C)c3ccccc3n2)cn1 [Example 136] | 38500 nM
Cc1cc(NCCCN(C)C)c2ccccc2n1 [Example 137] | 45600 nM
COc1ccc(-c2cc(NCCC(=O)N(C)C)c3ccccc3n2)cc1 [Example 138] | 52600 nM
COc1ccc(-c2cc(NCCCN(C)C)c3ccccc3n2)cn1 [Example 139] | 6510 nM
COc1ccc(-c2cc(NCCCN(C)C)c3cc4c(cc3n2)OC(F)(F)O4)cc1 [Example 140] | 6560 nM
COc1ccc(-c2cc(NC3CCC(F)(F)CC3)c3ccccc3n2)cc1 [Example 141] | 64500 nM
COc1ccc(-c2cc(NCCC(=O)OC(C)(C)C)c3ccccc3n2)cc1 [Example 142] | 65300 nM
COc1ccc2nc(C(F)(F)F)cc(NCCCN(C)C)c2c1 [Example 143] | 79400 nM
COc1cc2c(NCCCN(C)C)ccnc2cc1OCCCN1CCCC1 [Example 144] | 10 nM
COc1cc2nccc(NCCCN(C)CCCN)c2cc1OC [Example 146] | 410 nM
COc1cc2nccc(NCCCN(C)CCCN)c2cc1OC [Example 147, N^1-(3-aminopropyl)-N^3-(6,7-dimethoxyquinolin-4-yl)-N^1-methylpropane-1,3-diamine] | 840 nM

Target: T1, TDP-43
Test: not given
Conditions: previously reported; cited from earlier work

SMILES | caspase-7 cleavage of TDP-43
COc1ccc(-c2cc(NCCCN(C)C)c3ccccc3n2)cc1 [(XXVIII)] | promoted caspase-7 cleavage of TDP-43
